Test systems include 786-0; A549; CCRF-CEM; COLO 205; EKVX; HCT-116; HCT-15; HL-60; HT-29; NCI-H226; OVCAR-4; RPMI-8226; SK-OV-3; SN12C; SW-620; U-251; UACC-257; IGROV-1.
Assay in all cases: NCI anticancer screen, dose series, 48 h

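Compound exposure: 48 hours, 5 concentrations, 96-well plates. At the GI50, growth is halved.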 The source made the active and inactive calls. No stated cut-off is given here; in the data, active = GI50 up to about 1.1 µM and inactive = higher. Bounds are passed on as bounds.

With `CC(=O)O[C@]12CCCCCC1C1(O)C(O)CCC[C@H]12` (some centres undefined), the GI50 with 786-0, with A549, in the experiment with CCRF-CEM, in the experiment with COLO 205, with EKVX and in the experiment on HCT-116 was > 100 µM (inactive) throughout. In addition, the GI50 in the experiment with HCT-15 was more than 100 µM; in the experiment on HL-60, > 100 µM (inactive); with HT-29 it was > 100 µM (inactive); in the experiment with NCI-H226, > 100 µM (inactive); with OVCAR-4 it was > 100 µM (inactive); with RPMI-8226 it was > 100 µM (inactive). Besides, the GI50 in the experiment with SK-OV-3, in the experiment on SN12C, in the experiment with SW-620, in the experiment on U-251 and in the experiment on UACC-257 was > 100 µM (inactive) throughout.

With `CC1(c2ccccc2Cl)C(C#N)C(=O)NC(=O)C1C#N` (centres undefined), the GI50 in the experiment on 786-0 was 45.6 µM (inactive); in the experiment on A549, 45.5 µM (inactive); in the experiment with CCRF-CEM, 30.1 µM (inactive); with COLO 205, 45 µM (inactive); in the experiment with EKVX, 24.5 µM (inactive); with HCT-15, more than 100 µM. Also, the GI50 in the experiment on HL-60 is 21.6 µM (inactive); with HT-29 it was 36.6 µM (inactive); in the experiment with IGROV-1, 64.1 µM (inactive); with NCI-H226, 27.5 µM (inactive); with OVCAR-4, 33.3 µM (inactive); in the experiment with RPMI-8226, 22.7 µM (inactive). For the same compound, the GI50 is 34.6 µM (inactive) with SK-OV-3, 28.7 µM (inactive) in the experiment with SN12C, 43.8 µM (inactive) in the experiment on SW-620 and 30.5 µM (inactive) in the experiment with UACC-257.

Take `O=C1CCC(c2ccccc2)C(O)(C(=O)O)C1` (centres undefined): the GI50 with 786-0, with A549, in the experiment with CCRF-CEM, in the experiment on COLO 205, in the experiment on EKVX and in the experiment on HCT-116 was > 100 µM (inactive) throughout. Besides, the GI50 in the experiment on HCT-15 is more than 100 µM; in the experiment with HL-60, > 100 µM (inactive); with HT-29, > 100 µM (inactive); in the experiment on IGROV-1, > 100 µM (inactive); in the experiment on NCI-H226, > 100 µM (inactive); in the experiment on OVCAR-4, > 100 µM (inactive). In addition, the GI50 in the experiment with RPMI-8226, with SK-OV-3, in the experiment on SN12C, with SW-620, with U-251 and with UACC-257 was > 100 µM (inactive) throughout.

On to `COC1=CC(=O)C(O)=C(CC2(C)C(C)CCC3(C)C2CCCC3(C)C)C1=O` (centres undefined), for which the GI50 in the experiment on 786-0 is 3.86 µM (inactive); with A549 it was 2.99 µM (inactive); in the experiment on CCRF-CEM, 1.91 µM (inactive); in the experiment with COLO 205, 5.51 µM (inactive); in the experiment on EKVX, 5.83 µM (inactive); in the experiment with HCT-116 it was 5.12 µM (inactive). The GI50 was 3.3 µM with HCT-15; 2.58 µM (inactive) in the experiment on HL-60; 10.3 µM (inactive) in the experiment with HT-29; 5.2 µM (inactive) in the experiment with IGROV-1; 2.77 µM (inactive) in the experiment on NCI-H226; 4.18 µM (inactive) in the experiment on OVCAR-4. Besides, the GI50 in the experiment on RPMI-8226 was 2.96 µM (inactive); with SK-OV-3 it was 18.2 µM (inactive); with SN12C, 3.7 µM (inactive); in the experiment with SW-620 it was 4.03 µM (inactive); in the experiment with U-251, 2.44 µM (inactive); in the experiment on UACC-257 it was 3.84 µM (inactive).

For the compound `CC(=O)O[C@]12CCCCC1C1(O)C(O)CCCCC12` (some centres undefined), the GI50 in the experiment with 786-0, in the experiment with A549, with CCRF-CEM, in the experiment with COLO 205, with EKVX and with HCT-116 was > 100 µM (inactive) throughout. The GI50 in the experiment on HCT-15 was more than 100 µM; in the experiment with HL-60, > 100 µM (inactive); in the experiment with HT-29, > 100 µM (inactive); with NCI-H226 it was > 100 µM (inactive); in the experiment with OVCAR-4 it was > 100 µM (inactive); with RPMI-8226, > 100 µM (inactive). For the same compound, the GI50 in the experiment with SK-OV-3, in the experiment on SN12C, in the experiment on SW-620, in the experiment with U-251 and in the experiment on UACC-257 was > 100 µM (inactive) throughout.

With `CC(=O)/C(=C\c1cccc([N+](=O)[O-])c1)C(=O)Nc1ccccc1C`, the GI50 was > 100 µM (inactive) in the experiment with 786-0; > 100 µM (inactive) in the experiment on A549; 31.2 µM (inactive) with CCRF-CEM; > 100 µM (inactive) in the experiment on EKVX; 57.3 µM (inactive) with HCT-116; more than 100 µM in the experiment with HCT-15. For the same compound, the GI50 with HL-60 is 20.2 µM (inactive); in the experiment on HT-29 it was 95.1 µM (inactive); with IGROV-1 it was > 100 µM (inactive); in the experiment on NCI-H226 it was > 100 µM (inactive); in the experiment with OVCAR-4 it was 56.4 µM (inactive); in the experiment on RPMI-8226, 42.8 µM (inactive). Moreover, the GI50 with SK-OV-3 is > 100 µM (inactive); in the experiment on SN12C, > 100 µM (inactive); in the experiment with SW-620 it was > 100 µM (inactive); in the experiment with U-251 it was 91.2 µM (inactive); in the experiment with UACC-257, > 100 µM (inactive).

Take `O=C(COC(=O)c1cccc2c(=O)c3ccccc3[nH]c12)Nc1ccc(S(=O)(=O)Nc2ncccn2)cc1`: the GI50 in the experiment with 786-0 was 42.2 µM (inactive); with A549 it was > 100 µM (inactive); in the experiment on CCRF-CEM, 27.5 µM (inactive); with COLO 205, 59.6 µM (inactive); in the experiment with EKVX it was 64.1 µM (inactive); with HCT-116, 39.6 µM (inactive). The GI50 was more than 100 µM in the experiment on HCT-15; 30.9 µM (inactive) in the experiment with HL-60; 31.8 µM (inactive) in the experiment with HT-29; 39.8 µM (inactive) in the experiment on IGROV-1; > 100 µM (inactive) with NCI-H226; 59.2 µM (inactive) with OVCAR-4. The GI50 with RPMI-8226 is 51.4 µM (inactive); in the experiment with SK-OV-3, 39.5 µM (inactive); with SN12C, 59.6 µM (inactive); in the experiment with SW-620 it was 47.2 µM (inactive); in the experiment with U-251 it was 24.3 µM (inactive); in the experiment with UACC-257, 66.1 µM (inactive).

For `Cc1c(Cl)ccc2c1NC(=O)C2(O)CC(=O)c1cccc2ccccc12` (centres undefined), the GI50 was 73.6 µM (inactive) in the experiment on 786-0; > 100 µM (inactive) in the experiment with A549; 40.3 µM (inactive) in the experiment with CCRF-CEM; > 100 µM (inactive) with COLO 205; > 100 µM (inactive) in the experiment on EKVX; 69.5 µM (inactive) in the experiment on HCT-116. The GI50 was 78.5 µM in the experiment with HCT-15; 13.3 µM (inactive) in the experiment with HL-60; 43.4 µM (inactive) with HT-29; > 100 µM (inactive) with IGROV-1; > 100 µM (inactive) in the experiment with NCI-H226; 26.2 µM (inactive) in the experiment with OVCAR-4. Moreover, the GI50 in the experiment with RPMI-8226 was 28.9 µM (inactive); with SK-OV-3, > 100 µM (inactive); in the experiment with SN12C, > 100 µM (inactive); in the experiment with SW-620, 38.9 µM (inactive); in the experiment on U-251, 44.7 µM (inactive); in the experiment on UACC-257 it was 98.9 µM (inactive).

Take `Cc1cc(C)cc(NC(=O)CCC(=O)C2CCC/C2=N\NC(=O)C(=O)NN)c1` (centres undefined): the GI50 in the experiment on 786-0, in the experiment with A549, in the experiment on CCRF-CEM, in the experiment with COLO 205, in the experiment on EKVX and in the experiment with HCT-116 was > 100 µM (inactive) throughout. Besides, the GI50 is more than 100 µM in the experiment on HCT-15; > 100 µM (inactive) in the experiment with HL-60; > 100 µM (inactive) in the experiment on HT-29; > 100 µM (inactive) in the experiment with IGROV-1; > 100 µM (inactive) in the experiment on NCI-H226; > 100 µM (inactive) in the experiment on OVCAR-4. Further, the GI50 with RPMI-8226, in the experiment with SK-OV-3, in the experiment with SN12C, in the experiment on SW-620, in the experiment with U-251 and in the experiment on UACC-257 was > 100 µM (inactive) throughout.

Turning to `N#CC1=C(O)NC(O)=C(C#N)C1c1ccc(C2C(C#N)=C(O)NC(O)=C2C#N)cc1`, the GI50 was > 100 µM (inactive) with 786-0; 58.9 µM (inactive) with A549; 45.3 µM (inactive) with CCRF-CEM; 26.8 µM (inactive) with COLO 205; > 100 µM (inactive) in the experiment on EKVX; > 100 µM (inactive) in the experiment on HCT-116. Moreover, the GI50 was 50.8 µM in the experiment on HCT-15; 28.3 µM (inactive) in the experiment on HL-60; > 100 µM (inactive) in the experiment on HT-29; > 100 µM (inactive) in the experiment with IGROV-1; > 100 µM (inactive) in the experiment with NCI-H226; > 100 µM (inactive) with OVCAR-4. Also, the GI50 with RPMI-8226 was > 100 µM (inactive); in the experiment on SK-OV-3, > 100 µM (inactive); with SN12C, 46.5 µM (inactive); in the experiment with SW-620, > 100 µM (inactive); with U-251 it was > 100 µM (inactive); with UACC-257, > 100 µM (inactive).

As to `O=C1CCC[C@]2(CCCC(=O)N2)C1`, the GI50 with 786-0, in the experiment with A549, in the experiment with CCRF-CEM, in the experiment on COLO 205, in the experiment with EKVX and in the experiment on HCT-116 was > 100 µM (inactive) in each case. Also, the GI50 with HCT-15 is more than 100 µM; with HL-60 it was > 100 µM (inactive); in the experiment on HT-29, > 100 µM (inactive); in the experiment with IGROV-1, > 100 µM (inactive); with NCI-H226, > 100 µM (inactive); in the experiment with OVCAR-4, > 100 µM (inactive). Besides, the GI50 in the experiment with RPMI-8226, in the experiment on SK-OV-3, in the experiment with SN12C, in the experiment with SW-620, with U-251 and in the experiment on UACC-257 was > 100 µM (inactive) throughout.

In the case of `C#Cc1cccc(NC(=O)/C=C\C(=O)O)c1`, the GI50 in the experiment with 786-0, in the experiment on A549, in the experiment with CCRF-CEM, in the experiment with COLO 205, in the experiment on EKVX and in the experiment with HCT-116 was > 100 µM (inactive) each time. For the same compound, the GI50 in the experiment with HL-60, in the experiment on HT-29, in the experiment with NCI-H226, with OVCAR-4, in the experiment with RPMI-8226 and with SK-OV-3 was > 100 µM (inactive) in each case. In addition, the GI50 with SN12C, in the experiment with SW-620, with U-251 and in the experiment on UACC-257 was > 100 µM (inactive) each time.

The values above are taken from ChEMBL document CHEMBL1201862, “PubChem BioAssay data set” (2004).
